According to patent US20250076286A1, “GENERATION OF NEURAL ORGANIZER ORGANOIDS AND MIDLINE ASSEMBLOIDS FROM HUMAN PLURIPOTENT STEM CELLS” (The Board of Trustees of the Leland Stanford Junior …, priority 2022, published 2025):

Key:
Type in all cases: cell-based, human
[1] = system: hiPSC cell-derived floor plate organoids (hFpO); assay: Quantification of FOXA2 positive floor plate cells by immunofluorescence microscopy; details: hFpO induced with 5 μM SAG day 1 to day 6 plus dual SMAD inhibitors, EGF, FGF2, RA; controls without SAG showed no induction
Method: For the generation of 3D floor plate organoids, hiPSC cells were incubated with Accutase® (Innovative Cell Technologies, AT104) at 37° C. for 7 min and dissociated into single cells. To obtain uniformly sized organoids, AggreWell-800 (STEMCELL Technologies, 34815) containing 300 microwells was used. Approximately 3×10^6 single cells were added per AggreWell-800 well in Essential 8 medium supplemented with the ROCK inhibitor Y27632 (10 mM, Selleckchem, S1049), centrifuged at 100 g for 3 min to capture the cells in the microwells, and incubated at 37° C. with 5% CO2. After 24 h, organoids consisting of approximately 10,000 cells were collected from each microwell by pipetting medium in the well up and down with a cut P1000 pipet tip and transferred into ultra-low attachment plastic dishes (Corning, 3262) in 20% knockout serum medium (KOSR) supplemented with two SMAD pathway inhibitors dorsomorphin (2.5 mM, Sigma-Aldrich, P5499) and SB-431542 (10 mM, R&D Systems, 1614) for the first 5 days.
For floor plate induction: SAG, FGF2, and retinoic acid was added to the medium starting on day 1 and CHIR was added to the media beginning on day 2 until day 7. The 20% KOSR medium was changed every day and supplemented with the respective small molecules and growth factors (FIG. 1). […]

[2] = system: hFpO-hNtO midline assembloids; assay: hFpO-induced ventralization of hNtO in midline assembloids (immunofluorescence staining)
Method: Cryoprotection and immunofluorescence staining. hFpO, hNtO and midline assembloids were fixed in 4% paraformaldehyde (PFA)/phosphate buffered saline (PBS) for 1-2 hours on a rocker at 4° C. They were then washed in PBS and transferred to 30% sucrose/PBS overnight until the organoids/assembloids sink in the solution. Subsequently, they were rinsed in optimal cutting temperature (OCT) compound (Tissue-Tek OCT Compound 4583, Sakura Finetek) and embedded. For immunofluorescence staining, 20 μm-thick sections were cut using a Leica Cryostat (Leica, CM1850). Cryosections were blocked in 0.3% Triton X-100 (Millipore Sigma, T9284-100ML), 1% BSA diluted in PBS for 1 h at room temperature. The sections were then incubated overnight at 4° C. with primary antibodies diluted in PBS containing 1% BSA, 0.1% Triton X-100. Samples were then rinsed 3× and incubated for 30 minutes in 1% BSA, 0.1% Triton X-100. Cryosections were then incubated with secondary antibodies in block 1 h. The following primary antibodies were used for staining: anti-FOXA2 (rabbit, Abcam), anti-NKX2.2 (mouse, DSHB, sc-517261), anti-NKX6.1 (mouse, DSHB), LMX1A (rabbit, HPA030088, Atlas antibodies), TFAP2A. Alexa Fluor dyes (Life Technologies) were used at 1:1000 dilution, and nuclei were visualized with Hoechst 33258 (Life Technologies, H3549). Cryosections were mounted for microscopy on glass slides using Aquamount (Polysciences, 18606), and imaged on a Zeiss M1 Axioscope or EVOS microscope. Images were processed in Fiji (NIH).
Generation of neural tube organoids or organoids (hNtO) and midline assembloids (hNtO-hFpO). To generate hNtO, organoids were generated using the Aggrewell method previously described. The 20% KOSR medium was changed every day and supplemented with dorsomorphin and SB-431542 for 5 Days. On day 6 in suspension, the organoids were transferred to 20% KOSR supplemented with EGF, FGF2, CHIR and retinoic acid. On day 7, hNtO were dissociated and seeded as previously described in ultra-low attachment 96 well plates. […]

[3] = system: dorsal interneuron axon extension in dhSpOs; assay: Axon extension response of dhSpO dorsal interneurons to purified FP-secreted proteins; details: for sensitivity to repulsive axon guidance cue / chemorepulsion: ROBO3 KO neurites
Method: Differentiation of dorsal human spinal organoids (hSpO) and midline assembloids (dhSpO-hFpO-dhSpO) to study crossing of commissural projections. Aggregates of hiPSC cells were generated and collected as previously described in hFpO and hNtO protocols and transferred to poly-HEMA coated 10 cm dishes in Essential 6 medium (Thermo Fisher Scientific, A1516401) supplemented with two SMAD pathway inhibitors-dorsomorphin (2.5 mM, Sigma-Aldrich, P5499) and SB-431542 (10 mM, R&D Systems, 1614). For the first 5 d, Essential 6 medium was changed every day and supplemented with dorsomorphin and SB-431542. To generate hSpO, on day 6 in suspension the organoids were transferred to neural medium containing Neurobasal™-A Medium (Thermo Fisher Scientific, 10888022), B-27™ Supplement, minus vitamin A (Thermo Fisher Scientific, 12587010), GlutaMAX™ Supplement (1:100, Thermo Fisher Scientific, 35050079), Penicillin-Streptomycin (1:100, Thermo Fisher Scientific, 15070063), and supplemented with EGF, CHIR and RA. From day 19, to promote differentiation of the neural progenitors into neurons, the neural medium was supplemented with brain-derived neurotrophic factor (BDNF; 20 ng/ml, PeproTech, 450-02), IGF, AA, and 5′-cyclic monophosphate sodium salt (cAMP; 100 mM, Millipore Sigma, D0627). From this point on medium was changed every other day.
To validate the functionality of floor plate mechanisms that coordinate midline crossing, =isogenic KO hiPS cell lines targeting ROBO3 (an essential gene for midline crossing) with the CRISPR/Cas9 system were generated. Three sgRNAs targeting an early exon of a specific gene were designed and synthesized by Synthego to induce one deletion. Human iPSCs were dissociated with accutase and 0.5 million cells were mixed with 300 pmol sgRNAs and 40 pmol Cas9 protein (Synthego, SpCas9 2NLS Nuclease ([…])). Nucleofection was performed using the P3 Primary Cell 4D-NucleofectorTMX Kit L (Lonza, V4XP-3032), a 4D-nucleofector core unit and the X unit (Lonza) (program CA-137). […]

[4] = cyclopamine added the same day of fusion and in subsequent feeds, hFpO-hNtO assembloid

Molecule: CNC1CCC(N(Cc2cccc(-c3ccncc3)c2)C(=O)c2sc3ccccc3c2Cl)CC1 (stereo not shown) [SAG]
- percent of positive floor plate cells (FOXA2 marker) [1]: 90-99%

Molecule: CC1=C2C[C@H]3[C@@H](CC=C4C[C@@H](O)CC[C@@]43C)[C@@H]2CC[C@]12O[C@@H]1C[C@H](C)CN[C@H]1[C@H]2C [cyclopamine]
- FOXA2 expression in hFpO [2, 4]: abolished
- NKX2.2 induction in hNtO [2, 4]: abolished
- hFpO induced ventralization (NKX2.2, FOXA2, NKX6.1) ([2]; in the presence of cyclopamine, FIG. 5E-G): completely abolished

B1: SLIT-2: repulsive axon guidance cue, purified FP-secreted protein (protein, UniProt O94813 31-1529, looked up)
Slit homolog 2 protein: QCSCSGSTVDCHGLALRSVPRNIPRNTERLDLNGNNITRITKTDFAGLRHLRVLQLMENKISTIERGAFQDLKELERLRLNRNHLQLFPELLFLGTAKLYRLDLSENQIQAIPRKAFRGAVDIKNLQLDYNQISCIEDGAFRALRDLEVLTLNNNNITRLSVASFNHMPKLRTFRLHSNNLYCDCHLAWLSDWLRQRPRVGLYTQCMGPSHLRGHNVAEVQKREFVCSGHQSFMAPSCSVLHCPAACTCSNNIVDCRGKGLTEIPTNLPETITEIRLEQNTIKVIPPGAFSPYKKLRRIDLSNNQISELAPDAFQGLRSLNSLVLYGNKITELPKSLFEGLFSLQLLLLNANKINCLRVDAFQDLHNLNLLSLYDNKLQTIAKGTFSPLRAIQTMHLAQNPFICDCHLKWLADYLHTNPIETSGARCTSPRRLANKRIGQIKSKKFRCSAKEQYFIPGTEDYRSKLSGDCFADLACPEKCRCEGTTVDCSNQKLNKIPEHIPQYTAELRLNNNEFTVLEATGIFKKLPQLRKINFSNNKITDIEEGAFEGASGVNEILLTSNRLENVQHKMFKGLESLKTLMLRSNRITCVGNDSFIGLSSVRLLSLYDNQITTVAPGAFDTLHSLSTLNLLANPFNCNCYLAWLGEWLRKKRIVTGNPRCQKPYFLKEIPIQDVAIQDFTCDDGNDDNSCSPLSRCPTECTCLDTVVRCSNKGLKVLPKGIPRDVTELYLDGNQFTLVPKELSNYKHLTLIDLSNNRISTLSNQSFSNMTQLLTLILSYNRLRCIPPRTFDGLKSLRLLSLHGNDISVVPEGAFNDLSALSHLAIGANPLYCDCNMQWLSDWVKSEYKEPGIARCAGPGEMADKLLLTTPSKKFTCQGPVDVNILAKCNPCLSNPCKNDGTCNSDPVDFYRCTCPYGFKGQDCDVPIHACISNPCKHGGTCHLKEGEEDGFWCICADGFEGENCEVNVDDCEDNDCENNSTCVDGINNYTCLCPPEYTGELCEEKLDFCAQDLNPCQHDSKCILTPKGFKCDCTPGYVGEHCDIDFDDCQDNKCKNGAHCTDAVNGYTCICPEGYSGLFCEFSPPMVLPRTSPCDNFDCQNGAQCIVRINEPICQCLPGYQGEKCEKLVSVNFINKESYLQIPSAKVRPQTNITLQIATDEDSGILLYKGDKDHIAVELYRGRVRASYDTGSHPASAIYSVETINDGNFHIVELLALDQSLSLSVDGGNPKIITNLSKQSTLNFDSPLYVGGMPGKSNVASLRQAPGQNGTSFHGCIRNLYINSELQDFQKVPMQTGILPGCEPCHKKVCAHGTCQPSSQAGFTCECQEGWMGPLCDQRTNDPCLGNKCVHGTCLPINAFSYSCKCLEGHGGVLCDEEEDLFNPCQAIKCKHGKCRLSGLGQPYCECSSGYTGDSCDREISCRGERIRDYYQKQQGYAACQTTKKVSRLECRGGCAGGQCCGPLRSKRRKYSFECTDGSSFVDEVEKVVKCGCTRCVS
- sensitivity to repulsive axon guidance cue / chemorepulsion [3]: increased sensitivity and chemorepulsion
- sensitivity to repulsive axon guidance cue / chemorepulsion ([3]; listed as Slit-2): Increased sensitivity
- sensitivity to repulsive axon guidance cue ([3]; wildtype dorsal interneurons): largely insensitive
